Measured values: patent US20260325533A1, “CDK INHIBITOR COMPOUNDS” (ALEKSIA THERAPEUTICS, INC., priority 2023, published 2026)
Where a name gives a salt, the structure may show the parent alone. Read-outs that look alike come from different tables or passages of the source.

Experiments:
Assay type in all cases: biochemical
[1] = target: CDK2/CCNE1 (Homo sapiens, UniProt P24941); assay: CDK2 homogeneous time-resolved fluorescence (HTRF) kinase assay
How it was run: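 IC50 derived from 11-point, half-log dilutions (usually top 10 μM) of compound, 1% DMSO. Kinase (3 nM CDK2/CCNE1) was preincubated with compound 20 min, then phosphorylated 50 nM ULight-4E-BP1 peptide at 1 mM ATP for 60 min, 23 °C. Europium-antibody TR-FRET read after EDTA stop.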

[2] = target: CDK1/CCNB1 (Homo sapiens, UniProt P06493); assay: CDK1 homogeneous time-resolved fluorescence (HTRF) kinase assay
CDK1/CCNB1, sequence (P06493 whole entry): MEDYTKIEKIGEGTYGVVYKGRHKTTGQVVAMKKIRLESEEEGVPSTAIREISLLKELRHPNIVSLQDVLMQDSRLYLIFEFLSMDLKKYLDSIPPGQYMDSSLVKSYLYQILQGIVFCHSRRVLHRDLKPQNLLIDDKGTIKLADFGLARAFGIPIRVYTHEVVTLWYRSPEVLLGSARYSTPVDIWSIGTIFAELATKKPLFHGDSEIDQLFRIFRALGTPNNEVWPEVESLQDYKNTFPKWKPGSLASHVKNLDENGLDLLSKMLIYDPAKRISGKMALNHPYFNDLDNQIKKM
CDK1/CCNB1, sequence (P14635 whole entry partner): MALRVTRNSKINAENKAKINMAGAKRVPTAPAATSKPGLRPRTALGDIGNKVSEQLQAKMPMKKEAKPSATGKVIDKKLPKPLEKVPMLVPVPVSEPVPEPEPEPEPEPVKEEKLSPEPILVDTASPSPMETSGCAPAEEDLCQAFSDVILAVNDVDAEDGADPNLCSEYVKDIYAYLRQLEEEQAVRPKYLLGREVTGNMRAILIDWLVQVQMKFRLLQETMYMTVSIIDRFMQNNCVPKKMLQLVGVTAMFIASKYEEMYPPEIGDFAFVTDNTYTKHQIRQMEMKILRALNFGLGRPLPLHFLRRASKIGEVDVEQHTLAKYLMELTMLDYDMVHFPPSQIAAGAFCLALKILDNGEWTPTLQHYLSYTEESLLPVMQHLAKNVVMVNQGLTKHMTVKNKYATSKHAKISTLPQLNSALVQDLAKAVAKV
How it was run: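 High-ATP (1 mM) HTRF assay with 0.5 nM CDK1/cyclin B1 and 50 nM ULight-4E-BP1 (Thr37/46) substrate, 60 min at 23 °C after 20-min compound preincubation. IC50 values come from dose-response curves.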

[3] = target: CDK4/CCND3 (Homo sapiens, UniProt P11802); assay: CDK4 homogeneous time-resolved fluorescence (HTRF) kinase assay
CDK4/CCND3, sequence (P11802 whole entry): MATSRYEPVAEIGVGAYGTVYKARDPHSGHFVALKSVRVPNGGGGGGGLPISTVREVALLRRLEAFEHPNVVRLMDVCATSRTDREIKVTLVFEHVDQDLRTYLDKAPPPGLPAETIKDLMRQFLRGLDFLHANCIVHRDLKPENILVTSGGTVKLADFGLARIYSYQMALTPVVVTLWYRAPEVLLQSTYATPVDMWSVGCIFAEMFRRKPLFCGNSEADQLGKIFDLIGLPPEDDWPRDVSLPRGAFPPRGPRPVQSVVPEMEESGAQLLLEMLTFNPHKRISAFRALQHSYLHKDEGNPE
CDK4/CCND3, sequence (P30281 whole entry partner): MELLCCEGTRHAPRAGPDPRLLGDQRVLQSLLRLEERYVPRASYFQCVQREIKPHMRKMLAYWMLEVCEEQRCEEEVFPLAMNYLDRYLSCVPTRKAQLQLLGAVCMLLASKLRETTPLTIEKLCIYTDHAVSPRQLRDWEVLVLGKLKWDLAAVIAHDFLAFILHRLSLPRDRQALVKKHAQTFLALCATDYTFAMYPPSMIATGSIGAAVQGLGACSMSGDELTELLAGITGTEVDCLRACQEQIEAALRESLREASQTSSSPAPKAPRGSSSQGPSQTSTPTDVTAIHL
How it was run: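 IC50 values were derived from 11-point half-log dilutions, usually starting at 10 μM. Compound was first held for 20 min at 23 °C with 1.5 nM CDK4/CCND3. 1 mM ATP and 50 nM ULight-eIF4E-BP1 (Thr37/46) substrate were then added for 60 min, and the TR-FRET 665 nm signal was measured after EDTA stop and Eu-anti-phospho-4E-BP1 detection.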

[4] = target: CDK6/CCND1 (Homo sapiens, UniProt Q00534); assay: CDK6 homogeneous time-resolved fluorescence (HTRF) kinase assay
CDK6/CCND1, sequence (Q00534 whole entry): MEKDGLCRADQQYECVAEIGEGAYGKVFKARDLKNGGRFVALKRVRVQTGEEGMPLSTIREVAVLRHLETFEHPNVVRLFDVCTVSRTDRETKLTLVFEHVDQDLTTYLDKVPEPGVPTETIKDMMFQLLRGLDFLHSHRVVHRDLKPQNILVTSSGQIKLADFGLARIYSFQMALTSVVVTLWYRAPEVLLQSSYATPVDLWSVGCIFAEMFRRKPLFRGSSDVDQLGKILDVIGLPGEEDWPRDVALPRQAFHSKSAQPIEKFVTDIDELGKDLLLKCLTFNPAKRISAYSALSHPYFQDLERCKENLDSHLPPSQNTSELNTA
CDK6/CCND1, sequence (P24385 whole entry partner): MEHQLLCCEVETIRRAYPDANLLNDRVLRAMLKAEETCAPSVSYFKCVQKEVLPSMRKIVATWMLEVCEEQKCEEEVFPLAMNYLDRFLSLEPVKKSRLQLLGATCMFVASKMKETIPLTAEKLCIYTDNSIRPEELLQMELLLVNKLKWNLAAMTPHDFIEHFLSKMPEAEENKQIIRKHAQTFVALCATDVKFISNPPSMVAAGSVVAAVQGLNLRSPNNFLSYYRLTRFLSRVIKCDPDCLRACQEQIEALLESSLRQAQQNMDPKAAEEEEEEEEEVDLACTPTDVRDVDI
How it was run: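 Recombinant CDK6/CCND1 (1 nM final) was preincubated with compound for 20 min at 23 °C in HEPES buffer with MgCl2, EGTA, DTT and Tween 20. Kinase reaction then ran 60 min at 23 °C with 1 mM ATP and 50 nM ULight-4E-BP1 (Thr37/46) peptide, and was stopped with EDTA.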

[5] = CDK2/CCNE, x = IC50 <25 nM, read-out: CDK2/CCNE IC50 (<25 nM)
[6] = CDK1/CCNB, x = IC50 >250 nM, read-out: CDK1/CCNB IC50 (>250 nM column)
[7] = CDK4/CCND, x = IC50 25-250 nM, read-out: CDK4/CCND IC50 (25-250 nM)
[8] = CDK6/CCND, x = IC50 25-250 nM, read-out: CDK6/CCND IC50 (25-250 nM)
[9] = CDK1/CCNB, x = IC50 25-250 nM, read-out: CDK1/CCNB IC50 (25-250 nM)
[10] = CDK4/CCND, x = IC50 >250 nM, read-out: CDK4/CCND IC50 (>250 nM column)
[11] = CDK6/CCND, x = IC50 >250 nM, read-out: CDK6/CCND IC50 (>250 nM column)
[12] = 25-250 nM, CDK2/CCNE, read-out: CDK2/CCNE IC50, 25-250 nM
[13] = >250 nM, CDK1/CCNB, read-out: CDK1/CCNB IC50 >250 nM
[14] = >250 nM, CDK4/CCND, read-out: CDK4/CCND IC50, >250 nM
[15] = >250 nM, CDK6/CCND, 1 mM ATP, read-out: CDK6/CCND IC50, >250 nM
[16] = CDK2/CCNE, x = IC50 25-250 nM, read-out: CDK2/CCNE IC50 (25-250 nM)
[17] = <25 nM, CDK2/CCNE, read-out: CDK2/CCNE IC50, <25 nM

C=CS(=O)(=O)c1ccc(Nc2cc3c(-c4cccc(CO)c4)nccc3cn2)cc1 [Ex 217, (3-(7-((4-(vinylsulfonyl)phenyl)amino)-2,6-naphthyridin-1-yl)phenyl)methanol]
IC50 ([1]; CDK2/CCNE, 25-250 nM marked x, read-out: CDK2/CCNE IC50 25-250 nM): 25 to 250 nM | IC50 ([2]; CDK1/CCNB, >250 nM marked x, read-out: CDK1/CCNB IC50 >250 nM): > 250 nM | IC50 ([3]; CDK4/CCND, >250 nM marked x, read-out: CDK4/CCND IC50 >250 nM): > 250 nM | IC50 ([4]; CDK6/CCND, >250 nM marked x, read-out: CDK6/CCND IC50 >250 nM): > 250 nM

Cc1c(-c2nccc3cnc(Nc4ccc(S(C)(=O)=O)cc4)cc23)ccc2c1cnn2C(N)=O [Example 659, 4-methyl-5-(7-((4-(methylsulfonyl)phenyl)amino)-2,6-naphthyridin-1-yl)-1H-indazole-1-carboxamide]
IC50 [1, 5]: < 25 nM | IC50 [2, 6]: > 250 nM | IC50 [3, 7]: 25 to 250 nM | IC50 [4, 8]: 25 to 250 nM

CCC1(C)C(=O)Nc2cc(C#Cc3nccc4cnc(Nc5ccc(S(C)(=O)=O)cc5)cc34)ccc21 (single isomer, unassigned) [Example 388, 3-ethyl-3-methyl-6-((7-((4-(methylsulfonyl)phenyl)amino)-2,6-naphthyridin-1-yl)ethynyl)indolin-2-one]
IC50 [1, 5]: < 25 nM | IC50 [2, 9]: 25 to 250 nM | IC50 [3, 10]: > 250 nM | IC50 [4, 11]: > 250 nM

Cc1c(-c2nccc3cnc(Nc4ccc(S(=O)(=O)Nc5ncc(C(F)(F)F)cn5)cc4)cc23)ccc2c1cnn2CC(C)(C)O [Ex 894, 4-((5-(1-(2-hydroxy-2-methylpropyl)-4-methyl-1H-indazol-5-yl)-2,6-naphthyridin-3-yl)amino)-N-(5-(trifluoromethyl)pyrimidin-2-yl)benzenesulfonamide]
IC50 [1, 12]: 25 to 250 nM | IC50 [2, 13]: > 250 nM | IC50 [3, 14]: > 250 nM | IC50 [4, 15]: > 250 nM

CC(C)S(=O)(=O)c1ccc(Nc2cc3c(C#Cc4cccnc4N)nccc3cn2)cc1 [Ex 400, 5-((2-aminopyridin-3-yl)ethynyl)-N-(4-(isopropylsulfonyl)phenyl)-2,6-naphthyridin-3-amine]
IC50 [1, 16]: 25 to 250 nM | IC50 [2, 6]: > 250 nM | IC50 [3, 10]: > 250 nM | IC50 [4, 11]: > 250 nM

COc1cc(OC)nc(NS(=O)(=O)c2ccc(Nc3cc4c(-c5ccc6c(cnn6CC(C)(C)O)c5C)nccc4cn3)cc2)n1 [Ex 898, N-(4,6-dimethoxypyrimidin-2-yl)-4-((5-(1-(2-hydroxy-2-methylpropyl)-4-methyl-1H-indazol-5-yl)-2,6-naphthyridin-3-yl)amino)benzenesulfonamide]
IC50 [1, 17]: < 25 nM | IC50 [2, 13]: > 250 nM | IC50 [3, 14]: > 250 nM | IC50 [4, 15]: > 250 nM

CN1CCC(NS(=O)(=O)c2ccc(Nc3cc4c(C#Cc5cccnc5N)nccc4cn3)cc2)CC1 [Ex 432, 4-((5-((2-aminopyridin-3-yl)ethynyl)-2,6-naphthyridin-3-yl)amino)-N-(1-methylpiperidin-4-yl)benzenesulfonamide]
IC50 [1, 5]: < 25 nM | IC50 [2, 9]: 25 to 250 nM | IC50 [3, 7]: 25 to 250 nM | IC50 [4, 8]: 25 to 250 nM

CC1(C)C(=O)Nc2cc(C#Cc3nccc4cnc(Nc5ccc(S(=O)(=O)NC6CCC6)cc5)cc34)ccc21 [Ex 457, N-cyclobutyl-4-((5-((3,3-dimethyl-2-oxoindolin-6-yl)ethynyl)-2,6-naphthyridin-3-yl)amino)benzenesulfonamide]
IC50 [1, 5]: < 25 nM | IC50 [2, 9]: 25 to 250 nM | IC50 [3, 10]: > 250 nM | IC50 [4, 11]: > 250 nM

CS(=O)(=O)c1ccc(Nc2cc3c(C#Cc4ccc(O)cc4F)nccc3cn2)cc1 [Ex 602, 3-fluoro-4-((7-((4-(methylsulfonyl)phenyl)amino)-2,6-naphthyridin-1-yl)ethynyl)phenol]
IC50 [1, 5]: < 25 nM | IC50 [2, 6]: > 250 nM | IC50 [3, 10]: > 250 nM | IC50 [4, 11]: > 250 nM

Cc1c(-c2nccc3cnc(Nc4ccc(S(C)(=O)=O)cc4)cc23)ccc2c1ccn2CCO [Ex 657, 2-(4-methyl-5-(7-((4-(methylsulfonyl)phenyl)amino)-2,6-naphthyridin-1-yl)-1H-indol-1-yl)ethan-1-ol]
IC50 [1, 5]: < 25 nM | IC50 [2, 9]: 25 to 250 nM | IC50 [3, 7]: 25 to 250 nM | IC50 [4, 8]: 25 to 250 nM

COc1cc(OC)nc(NS(=O)(=O)c2ccc(Nc3cc4c(-c5ccc6c(cnn6CC(O)(C(F)(F)F)C(F)(F)F)c5C)nccc4cn3)cc2)n1 [Ex 745, N-(4,6-dimethoxypyrimidin-2-yl)-4-((5-(4-methyl-1-(3,3,3-trifluoro-2-hydroxy-2-(trifluoromethyl)propyl)-1H-indazol-5-yl)-2,6-naphthyridin-3-yl)amino)benzenesulfonamide]
IC50 [1, 12]: 25 to 250 nM | IC50 [2, 13]: > 250 nM | IC50 [3, 14]: > 250 nM | IC50 [4, 15]: > 250 nM

CS(=O)(=O)c1ccc(Nc2cc3c(C#CC(O)CO)nccc3cn2)cc1 (racemic) [Ex 477, 4-(7-((4-(methylsulfonyl)phenyl)amino)-2,6-naphthyridin-1-yl)but-3-yne-1,2-diol]
IC50 [1, 5]: < 25 nM | IC50 [2, 6]: > 250 nM | IC50 [3, 10]: > 250 nM | IC50 [4, 11]: > 250 nM

CS(=O)(=O)c1ccc(Nc2ncc3ccc(C#N)c(C#Cc4ccc5c(c4)CCNC5)c3n2)cc1 [Example 948, 2-((4-(methylsulfonyl)phenyl)amino)-8-((1,2,3,4-tetrahydroisoquinolin-6-yl)ethynyl)quinazoline-7-carbonitrile, TFA Salt]
IC50 ([1]; 3 nM CDK2/CCNE1, 1 mM ATP, read-out: CDK2/CCNE IC50 >250 nM): > 250 nM | IC50 ([2]; 0.5 nM CDK1/CCNB1, 1 mM ATP, read-out: CDK1/CCNB IC50 >250 nM): > 250 nM | IC50 ([3]; 1.5 nM CDK4/CCND3, 1 mM ATP, read-out: CDK4/CCND IC50 >250 nM): > 250 nM | IC50 ([4]; 1 nM CDK6/CCND1, 1 mM ATP, read-out: CDK6/CCND IC50 >250 nM): > 250 nM

CS(=O)(=O)c1ccc(Nc2cc3c(C#Cc4cc(F)cnc4N)nccc3cn2)cc1 [Ex 556, 5-((2-amino-5-fluoropyridin-3-yl)ethynyl)-N-(4-(methylsulfonyl)phenyl)-2,6-naphthyridin-3-amine]
IC50 [1, 16]: 25 to 250 nM | IC50 [2, 6]: > 250 nM | IC50 [3, 10]: > 250 nM | IC50 [4, 11]: > 250 nM

COc1ccnc(NS(=O)(=O)c2ccc(Nc3cc4c(-c5ccc6c(cnn6CC(C)(C)O)c5C)nccc4cn3)cc2)c1 [Ex 813, 4-((5-(1-(2-hydroxy-2-methylpropyl)-4-methyl-1H-indazol-5-yl)-2,6-naphthyridin-3-yl)amino)-N-(4-methoxypyridin-2-yl)benzenesulfonamide]
IC50 [1, 17]: < 25 nM | IC50 [2, 13]: > 250 nM | IC50 [3, 14]: > 250 nM | IC50 ([4]; 25-250 nM, CDK6/CCND, 1 mM ATP, read-out: CDK6/CCND IC50, 25-250 nM): 25 to 250 nM

CCS(=O)(=O)c1ccc(Nc2cc3c(C#Cc4ccc5c(c4)NC(=O)C54CC4)nccc3cn2)cc1 [Ex 397, 6'-((7-((4-(ethylsulfonyl)phenyl)amino)-2,6-naphthyridin-1-yl)ethynyl)spiro[cyclopropane-1,3'-indolin]-2'-one]
IC50 [1, 5]: < 25 nM | IC50 [2, 9]: 25 to 250 nM | IC50 [3, 7]: 25 to 250 nM | IC50 [4, 8]: 25 to 250 nM

CC#Cc1nccc2cnc(Nc3ccc(S(=O)(=O)Nc4nccc(N5CCN(C)CC5)n4)cc3)cc12 [Example 877, N-(4-(4-methylpiperazin-1-yl)pyrimidin-2-yl)-4-((5-(prop-1-yn-1-yl)-2,6-naphthyridin-3-yl)amino)benzenesulfonamide]
IC50 [1, 12]: 25 to 250 nM | IC50 [2, 13]: > 250 nM | IC50 [3, 14]: > 250 nM | IC50 [4, 15]: > 250 nM

N#Cc1ccc(C#Cc2nccc3cnc(Nc4ccc5c(c4)OCCS5(=O)=O)cc23)cc1 [Example 862, 4-((7-((4,4-dioxido-2,3-dihydrobenzo[b][1,4]oxathiin-7-yl)amino)-2,6-naphthyridin-1-yl)ethynyl)benzonitrile]
IC50 [1, 12]: 25 to 250 nM | IC50 [2, 13]: > 250 nM | IC50 [3, 14]: > 250 nM | IC50 [4, 15]: > 250 nM
